Broadly, the AC50 is the concentration giving half of the maximal activity seen.

Each structure is given as a SMILES string. Structures can show the parent of a compound that is named as a salt.

This assay concerns the target T1, human PAH with the R408W mutation (Homo sapiens, UniProt P00439, R408W).
T1 construct: expressed in transfected cells
T1 sequence (P00439 1-452 R408W): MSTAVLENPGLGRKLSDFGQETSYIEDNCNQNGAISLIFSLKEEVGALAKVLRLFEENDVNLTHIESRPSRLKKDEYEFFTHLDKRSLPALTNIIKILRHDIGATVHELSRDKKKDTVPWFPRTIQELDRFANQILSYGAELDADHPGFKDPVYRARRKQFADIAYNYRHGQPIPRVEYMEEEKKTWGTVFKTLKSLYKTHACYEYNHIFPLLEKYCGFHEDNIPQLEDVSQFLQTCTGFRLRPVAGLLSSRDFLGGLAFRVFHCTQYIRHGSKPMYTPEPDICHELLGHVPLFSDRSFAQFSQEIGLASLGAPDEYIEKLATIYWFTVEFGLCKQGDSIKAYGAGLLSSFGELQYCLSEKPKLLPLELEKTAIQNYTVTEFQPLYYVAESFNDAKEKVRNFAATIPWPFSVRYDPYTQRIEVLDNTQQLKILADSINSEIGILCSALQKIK
Briefly: Cell Based Phenylalanine Flux Assay. To be noted: A375 cells expressing human R408W PAH; 24 hrs compound incubation; 13C-Tyrosine by LC-MS; average where tested multiple times; read-out: AC50.
As for `O=C(c1nnc(-c2ccn(C(F)F)n2)o1)N1CCc2[nH]cnc2[C@H]1c1ccc2ccccc2n1` [Example 96], the AC50 is 0.5 to 1 µM. Consider `O=C(c1nnc(C2CC2)o1)N1CCc2[nH]cnc2[C@H]1c1ncc2ccccc2n1` [Example 139, (S)-(5-cyclopropyl-1,3,4-oxadiazol-2-yl)(4-(quinazolin-2-yl)-6,7-dihydro-1H-imidazo[4,5-c]pyridin-5(4H)-yl)methanone], for which the AC50 fell in the range of 0.5 to 1 µM. With `O=C(c1nnc(C2CC2)o1)N1CCc2[nH]cnc2[C@@H]1c1ncc2ccccc2n1` [Example 140, (R)-(5-cyclopropyl-1,3,4-oxadiazol-2-yl)(4-(quinazolin-2-yl)-6,7-dihydro-1H-imidazo[4,5-c]pyridin-5(4H)-yl)methanone], the concentration at half-maximal activity (AC50) was over 5 µM. For `Cc1nc(C(C)(C)O)oc1C(=O)N1CCc2[nH]cnc2[C@H]1c1ncc2ccccc2n1` [Example 141, (S)-(2-(2-hydroxypropan-2-yl)-4-methyloxazol-5-yl)(4-(quinazolin-2-yl)-6,7-dihydro-1H-imidazo[4,5-c]pyridin-5(4H)-yl)methanone hydrochloride] the value was under 0.5 µM; for `Cc1nc(C(C)(C)O)oc1C(=O)N1CCc2[nH]cnc2[C@@H]1c1ncc2ccccc2n1` [Example 142, (R)-(2-(2-hydroxypropan-2-yl)-4-methyloxazol-5-yl)(4-(quinazolin-2-yl)-6,7-dihydro-1H-imidazo[4,5-c]pyridin-5(4H)-yl)methanone hydrochloride], over 5 µM; for `Cn1cc(-c2nnc(C(=O)N3CCc4[nH]cnc4[C@H]3c3ncc4ccccc4n3)o2)cn1` [Example 143, (S)-(5-(1-methyl-1H-pyrazol-4-yl)-1,3,4-oxadiazol-2-yl)(4-(quinazolin-2-yl)-6,7-dihydro-1H-imidazo[4,5-c]pyridin-5(4H)-yl)methanone], 0.5 to 1 µM. Take `Cn1cc(-c2nnc(C(=O)N3CCc4[nH]cnc4[C@@H]3c3ncc4ccccc4n3)o2)cn1` [Example 144, (R)-(5-(1-methyl-1H-pyrazol-4-yl)-1,3,4-oxadiazol-2-yl)(4-(quinazolin-2-yl)-6,7-dihydro-1H-imidazo[4,5-c]pyridin-5(4H)-yl)methanone]: the AC50 was over 5 µM. In the case of `O=C(c1nnc(-c2ccccn2)o1)N1CCc2[nH]cnc2[C@H]1c1ncc2ccccc2n1` [Example 145, (S)-(5-(pyridin-2-yl)-1,3,4-oxadiazol-2-yl)(4-(quinazolin-2-yl)-6,7-dihydro-1H-imidazo[4,5-c]pyridin-5(4H)-yl)methanone], the AC50 is under 0.5 µM. As to `O=C(c1nnc(-c2ccccn2)o1)N1CCc2[nH]cnc2[C@@H]1c1ncc2ccccc2n1` [Example 146, (R)-(5-(pyridin-2-yl)-1,3,4-oxadiazol-2-yl)(4-(quinazolin-2-yl)-6,7-dihydro-1H-imidazo[4,5-c]pyridin-5(4H)-yl)methanone], the concentration at half-maximal activity (AC50) was 1 to 5 µM.

Consider `N#Cc1ncoc1C(=O)N1CCc2[nH]cnc2[C@H]1c1ncc2ccccc2n1` [Example 147, (S)-5-(4-(quinazolin-2-yl)-4,5,6,7-tetrahydro-1H-imidazo[4,5-c]pyridine-5-carbonyl)oxazole-4-carbonitrile], for which the AC50 was under 0.5 µM.

As to `N#Cc1ncoc1C(=O)N1CCc2[nH]cnc2[C@@H]1c1ncc2ccccc2n1` [Example 148, (R)-5-(4-(quinazolin-2-yl)-4,5,6,7-tetrahydro-1H-imidazo[4,5-c]pyridine-5-carbonyl)oxazole-4-carbonitrile], the AC50 is 1 to 5 µM. For `O=C(c1cnco1)N1CCc2[nH]cnc2[C@H]1c1ncc2ccccc2n1` [Example 149, (S)-oxazol-5-yl(4-(quinazolin-2-yl)-6,7-dihydro-1H-imidazo[4,5-c]pyridin-5(4H)-yl)methanone] the value was under 0.5 µM; for `O=C(c1cnco1)N1CCc2[nH]cnc2[C@@H]1c1ncc2ccccc2n1` [Example 150, (R)-oxazol-5-yl(4-(quinazolin-2-yl)-6,7-dihydro-1H-imidazo[4,5-c]pyridin-5(4H)-yl)methanone], over 5 µM; for `O=C(c1nnc(C2CC(F)(F)C2)o1)N1CCc2[nH]cnc2[C@H]1c1ncc2ccccc2n1` [Example 151, (S)-(5-(3,3-difluorocyclobutyl)-1,3,4-oxadiazol-2-yl)(4-(quinazolin-2-yl)-6,7-dihydro-1H-imidazo[4,5-c]pyridin-5(4H)-yl)methanone], 0.5 to 1 µM. For `O=C(c1nnc(C2CC(F)(F)C2)o1)N1CCc2[nH]cnc2[C@@H]1c1ncc2ccccc2n1` [Example 152, (R)-(5-(3,3-difluorocyclobutyl)-1,3,4-oxadiazol-2-yl)(4-(quinazolin-2-yl)-6,7-dihydro-1H-imidazo[4,5-c]pyridin-5(4H)-yl)methanone] the value was over 5 µM; for `COCc1ccc2c(C(=O)N3CCc4[nH]cnc4[C@H]3c3ncc4ccccc4n3)cnn2c1` [Example 153], 0.5 to 1 µM; for `COCc1ccc2c(C(=O)N3CCc4[nH]cnc4[C@@H]3c3ncc4ccccc4n3)cnn2c1` [Example 154, (R)-(6-(methoxymethyl)pyrazolo[1,5-a]pyridin-3-yl)(4-(quinazolin-2-yl)-6,7-dihydro-1H-imidazo[4,5-c]pyridin-5(4H)-yl)methanone], over 5 µM. Take `CN(C)Cc1ccc2c(C(=O)N3CCc4[nH]cnc4[C@H]3c3ncc4ccccc4n3)cnn2c1` [Example 155, (S)-(6-((dimethylamino)methyl)pyrazolo[1,5-a]pyridin-3-yl)(4-(quinazolin-2-yl)-6,7-dihydro-1H-imidazo[4,5-c]pyridin-5(4H)-yl)methanone]: the half-maximal activity concentration (AC50) was 0.5 to 1 µM. For `CN(C)Cc1ccc2c(C(=O)N3CCc4[nH]cnc4[C@@H]3c3ncc4ccccc4n3)cnn2c1` [Example 156, (R)-(6-((dimethylamino)methyl)pyrazolo[1,5-a]pyridin-3-yl)(4-(quinazolin-2-yl)-6,7-dihydro-1H-imidazo[4,5-c]pyridin-5(4H)-yl)methanone] the value was over 5 µM.

Consider `O=C(c1cnc(-c2ccccn2)o1)N1CCc2[nH]cnc2[C@@H]1c1ncc2ccccc2n1` [Example 157, (R)-(2-(pyridin-2-yl)oxazol-5-yl)(4-(quinazolin-2-yl)-6,7-dihydro-1H-imidazo[4,5-c]pyridin-5(4H)-yl)methanone], for which the AC50 is over 5 µM. Regarding `O=C(c1cnc(-c2ccccn2)o1)N1CCc2[nH]cnc2[C@H]1c1ncc2ccccc2n1` [Example 158, (S)-(2-(pyridin-2-yl)oxazol-5-yl)(4-(quinazolin-2-yl)-6,7-dihydro-1H-imidazo[4,5-c]pyridin-5(4H)-yl)methanone], the AC50 fell in the range of 0.5 to 1 µM. As for `O=C(c1nnc(N2CCC(F)CC2)o1)N1CCc2[nH]cnc2[C@H]1c1ncc2ccccc2n1` [Example 159, (S)-(5-(4-fluoropiperidin-1-yl)-1,3,4-oxadiazol-2-yl)(4-(quinazolin-2-yl)-6,7-dihydro-1H-imidazo[4,5-c]pyridin-5(4H)-yl)methanone], the AC50 was 1 to 5 µM. For `O=C(c1nnc(N2CCC(F)CC2)o1)N1CCc2[nH]cnc2[C@@H]1c1ncc2ccccc2n1` [Example 160, (R)-(5-(4-fluoropiperidin-1-yl)-1,3,4-oxadiazol-2-yl)(4-(quinazolin-2-yl)-6,7-dihydro-1H-imidazo[4,5-c]pyridin-5(4H)-yl)methanone] the value was over 5 µM; for `CC(C)(F)c1nnc(C(=O)N2CCc3[nH]cnc3[C@H]2c2ncc3ccccc3n2)o1` [Example 161, (S)-(5-(2-fluoropropan-2-yl)-1,3,4-oxadiazol-2-yl)(4-(quinazolin-2-yl)-6,7-dihydro-1H-imidazo[4,5-c]pyridin-5(4H)-yl)methanone], 0.5 to 1 µM; for `CC(C)(F)c1nnc(C(=O)N2CCc3[nH]cnc3[C@@H]2c2ncc3ccccc3n2)o1` [Example 162, (R)-(5-(2-fluoropropan-2-yl)-1,3-oxadiazol-2-yl)(4-(quinazolin-2-yl)-6,7-dihydro-1H-imidazo[4,5-c]pyridin-5(4H)-yl)methanone], over 5 µM.

`O=C(c1nnc(-c2ncccc2F)o1)N1CCc2[nH]cnc2[C@H]1c1ncc2ccccc2n1` [Example 163, (S)-(5-(3-fluoropyridin-2-yl)-1,3,4-oxadiazol-2-yl)(4-(quinazolin-2-yl)-6,7-dihydro-1H-imidazo[4,5-c]pyridin-5(4H)-yl)methanone]: the AC50 was under 0.5 µM. Consider `O=C(c1nnc(-c2ncccc2F)o1)N1CCc2[nH]cnc2[C@@H]1c1ncc2ccccc2n1` [Example 164, (R)-(5-(3-fluoropyridin-2-yl)-1,3,4-oxadiazol-2-yl)(4-(quinazolin-2-yl)-6,7-dihydro-1H-imidazo[4,5-c]pyridin-5(4H)-yl)methanone], for which the AC50 is over 5 µM.

In the case of `Cn1ccc(-c2nnc(C(=O)N3CCc4[nH]cnc4[C@H]3c3ncc4ccccc4n3)o2)n1` [Example 165, (S)-(5-(1-methyl-1H-pyrazol-3-yl)-1,3,4-oxadiazol-2-yl)(4-(quinazolin-2-yl)-6,7-dihydro-1H-imidazo[4,5-c]pyridin-5(4H)-yl)methanone], the AC50 lay in the range of 0.5 to 1 µM. Take `Cn1ccc(-c2nnc(C(=O)N3CCc4[nH]cnc4[C@@H]3c3ncc4ccccc4n3)o2)n1` [Example 166, (R)-(5-(1-methyl-1H-pyrazol-3-yl)-1,3,4-oxadiazol-2-yl)(4-(quinazolin-2-yl)-6,7-dihydro-1H-imidazo[4,5-c]pyridin-5(4H)-yl)methanone]: the AC50 was in the range of 1 to 5 µM.

Values taken from patent US20250262201A1, “COMPOUNDS AND METHODS USEFUL FOR STABILIZING PHENYLALANINE HYDROXYLASE MUTATIONS” (Agios Pharmaceuticals, Inc., priority 2022, published 2025).
